Measured values from patent US20020176882A1, “Additive the improvement and/or stabilization of the keeping quality of microbially perishable products” (priority 1997, published 2002).

What was measured:
[1] = tested on: aerobic microorganisms (total germ count); assay: quantitative suspension assay, total germ count; type: cell-based; settings: control 10^8/ml
Description: (§1) Bacteriological assay methods for additives quantitative suspension assay II (suspension test)
(§2) Microorganisms: aerobic microorganisms (total germ count), Enterobacteriaceae, Enterococci, Lactobacilli, yeasts, molds. These methods are capable of determining the effects of the additives as a function of dosage and duration of action using different microorganisms on different nutrient media.
(§3) Quantitative suspension assay II—suspension test a) Inoculate test germ suspension with the desired test germ, e.g., 10^6/ml, expose for 1-60 min. Place desired formulation to be tested into desiganted germ suspension tubes (different percentages). Await end of exposure times and pour or inoculate into the appropriate agar plates, depending on the germ. […]
(§4) b) Treat the test germ suspension with the desired formulation to be tested (see a) prior to inoculating the test germs (see a). Await end of exposure times and then inoculate with the respective test germs, and inoculate or pour into the appropriate agar plates depending on the test germ.

Enterobacteria = assay: quantitative suspension assay, Enterobacteria; type: cell-based, Enterobacteriaceae; settings: control 10^8/ml
Description: as §1, §2, §3, §4

Enterococci = assay: quantitative suspension assay, Enterococci; type: cell-based; settings: control 10^8/ml
Description: as §1, §2, §3, §4

Lactobacilli = assay: quantitative suspension assay, Lactobacilli; type: cell-based; settings: control 10^5/ml
Description: as §1, §2, §3, §4

yeasts = assay: quantitative suspension assay, yeasts; type: cell-based; settings: control 10^5/ml
Description: as §1, §2, §3, §4

molds = assay: quantitative suspension assay, molds; type: cell-based; settings: control 10^5/ml
Description: as §1, §2, §3, §4
Further: test concentration or dose not given here.

Compound | total germ count ([1]; 5 min exp. time) | total germ count ([1]; 15 min exp. time) | total germ count ([1]; 60 min exp. time) | Enterobacteria germ count (Enterobacteria; 5 min exp. time) | Enterobacteria germ count (Enterobacteria; 15 min exp. time) | Enterobacteria germ count (Enterobacteria; 60 min exp. time) | Enterococci germ count (Enterococci; 5 min exp. time) | Enterococci germ count (Enterococci; 15 min exp. time) | Enterococci germ count (Enterococci; 60 min exp. time) | Lactobacilli germ count (Lactobacilli; 5 min exp. time) | Lactobacilli germ count (Lactobacilli; 15 min exp. time) | Lactobacilli germ count (Lactobacilli; 60 min exp. time) | yeasts germ count (yeasts; 5 min exp. time) | yeasts germ count (yeasts; 15 min exp. time) | yeasts germ count (yeasts; 60 min exp. time) | molds germ count (molds; 5 min exp. time) | molds germ count (molds; 15 min exp. time) | molds germ count (molds; 60 min exp. time)
OCc1ccccc1 [Benzyl alcohol] | 10^8 /ml | 10^7 /ml | 10^7 /ml | 10^7 /ml | 10^7 /ml | 10^7 /ml | 10^8 /ml | 10^7 /ml | 10^7 /ml | 10^5 /ml | 10^5 /ml | 10^5 /ml | 10^5 /ml | 10^4 /ml | 10^4 /ml | 10^5 /ml | 10^4 /ml | 10^4 /ml
OCC(O)CO [Glycerol] | 10^6 /ml | 10^8 /ml | 10^8 /ml | 10^7 /ml | 10^7 /ml | 10^7 /ml | 10^8 /ml | 10^8 /ml | 10^8 /ml | 10^5 /ml | 10^5 /ml | 10^5 /ml | 10^5 /ml | 10^5 /ml | 10^5 /ml | 10^5 /ml | 10^5 /ml | 10^5 /ml
CC(O)C(=O)O (stereo not drawn) [Lactic acid] | 10^7 /ml | 10^7 /ml | 10^7 /ml | 10^6 /ml | 10^6 /ml | 10^6 /ml | 10^7 /ml | 10^7 /ml | 10^7 /ml | 10^5 /ml | 10^4 /ml | 10^4 /ml | 10^5 /ml | 10^5 /ml | 10^5 /ml | 10^5 /ml | 10^5 /ml | 10^5 /ml
CC(O)CO (stereo not drawn) [Propylene glycol] | 10^9 /ml | 10^9 /ml | 10^9 /ml | 10^8 /ml | 10^8 /ml | 10^8 /ml | 10^8 /ml | 10^8 /ml | 10^8 /ml | 10^5 /ml | 10^5 /ml | 10^5 /ml | 10^5 /ml | 10^5 /ml | 10^5 /ml | 10^5 /ml | 10^5 /ml | 10^5 /ml
tannin [Formulation 1a] | 10^6 /ml | 10^6 /ml | 10^6 /ml | 10^6 /ml | 10^6 /ml | 10^6 /ml | 10^7 /ml | 10^6 /ml | 10^6 /ml | 10^5 /ml | 10^4 /ml | 10^4 /ml | 10^4 /ml | 10^4 /ml | 10^4 /ml | 10^4 /ml | 10^4 /ml | 10^4 /ml
